Reference: patent US20040115249A1, “Ionic compounds of quaternary ammonium cations with anions of preservation acids, preparation thereof, and use thereof for preservation” (priority 2002, published 2004)

System: microorganisms from different sectors (molds, yeasts, bacteria)
Excerpt: The product obtained in example 2 was used in a test of antimicrobial activity.

## n-alkyldimethylethylbenzylammonium Sorbate [Example 2]
  minimum inhibitory concentrations: Very low
